# Measurements: US6541455B2, “Methods and kits for removing, treating, or preventing lice with driable pediculostatic agents” (priority 1999, dated 2003)
# What was measured:
# head lice [1] = experiment: In vitro test of agent dried onto lice (driable pediculostatic agent test); design: species or system Pediculus humanus capitis; settings: water by itself
# Description: Contact a louse with a pediculostatic agent for a period of time sufficient to immobilize the louse (i.e., for at least 1× the Immersion Reflex Index of the agent);
# Dry the agent onto the louse, either by air-drying or by application of heat, and observe whether the louse remains immobilized.
# The period of time necessary for a particular dried agent to kill the louse can be conveniently determined by rinsing the dried agent off lice as a function of time and observing whether the rinsed lice regain mobility upon drying off.
# Six crawling lice were obtained from patients with head lice and each placed in a drop of […] ® Cleanser as described in EXAMPLE 1. After 2 min., the cleanser was dried onto the lice by air drying (4 lice) or gentle warm air from a hair dryer (2 lice).
# head lice [2] = experiment: In vitro immersion reflex test: louse placed in a drop of wet agent on a microscope slide; design: species or system Pediculus humanus capitis; settings: water by itself
# Description: Driable pediculostatic agents useful in the methods and kits of the present invention are characterized by their ability to induce an immersion reflex in lice in their wet form and to keep the lice in the immersion reflex once dried. The following in vitro test can be conveniently used to determine whether any individual agent is a pediculostatic agent, and can further be used for routine screening of agents—such as those from natural products libraries and combinatorial chemical libraries—to identify those that can be used in the methods, compositions, and kits of the present invention:
# 1. Contact a louse with an agent suspected of being a pediculostatic agent; and
# 2. Observe whether the louse becomes immobile.
# Observations can readily be performed using a standard inexpensive light microscope with 10× or 40× magnification. The length of time necessary to render the louse completely immobile, in minutes, is the Immersion Reflex Index of the agent tested.
# Ten crawling lice were obtained from patients with head lice and each one placed on a separate microscope slide for observation under a microscope at 10× or 40× power. […] Within 6 seconds of application, they stopped all spontaneous movement. Usually within 30 seconds, and always within 60 seconds, they would not respond to contact by a probe and ceased previously visible gastrointestinal motility. […]
smiles,measurement,setting,value
O [water],lice upon drying of the agent,head lice [1],recover and regain mobility
same,induction of the immersion reflex in lice,head lice [2],triggers the immersion reflex
